According to patent publication EP0198508A1, “L-phosphoserine salts, a process for the preparation thereof and pharmaceutical compositions containing them” (LABORATORI PROPHIN S.p.A., priority 1985, dated 1986):
Structures can show the parent of a compound that is named as a salt. Marks after values point to notes of the source that are not given here.

Experiments:
Wistar rats [1] = test: Shuttle box test: acquirement of conditioned avoidance responses (CARs); format: in vivo; settings: for CARs: mean + ES; for effect on number of conditioned responses and percentage of learners (in words): young and elderly rats, PR 156 tested only on young rats
Description: (§1) Male young and elderly Wistar rats, weighing respectively […] and 580 g, were used.
(§2) The test compounds, dissolved in physiological saline, were administered orally to young and elderly animals, at doses of 5, lO and 20 mg/kg. Phosphoserine dissolved in physiological saline was administered at equimolecular doses (1.8, 3.6 and 7.2 mg/kg). The control animals were administered with the sole vehicle. The administrations were carried out once a day during 20 days, the last administration being effected 1 hour before the tests.
The following behavioral tests were carried out: • 1) Shuttle box test: to evaluate the acquirement of conditioned avoidance responses (CARs).

Wistar rats [2] = test: Dark box test: effect on memory capability; format: in vivo; settings: for LATENCY (seconds): averages; for effect on acquirement of avoidance responses (in words): summary of Table 2, young and elderly rats
Description: as §1, §2
2. Dark box test: to further evaluate the effect on memory capability of the animals.

elderly rats = test: Despair test: antidepressant activity; format: in vivo, Wistar rats; settings: for DURATION OF STILLNESS: Elderly rats, mean + SEM; for effect on stillness (in words): summary in text of Table 3, elderly rats
Description: as §1, §2
3. Despair test: to estimate the antidepressant activity on the elderly rats.

[3] = Young rats, 5 mg/kg orally once a day during 20 days, 5 mg/kg
[4] = Young rats, 10 mg/kg orally once a day during 20 days, 10 mg/kg
[5] = Elderly rats, 5 mg/kg orally once a day during 20 days
[6] = Elderly rats, 10 mg/kg orally once a day during 20 days
[7] = Elderly rats, 20 mg/kg orally once a day during 20 days
[8] = Young rats, 20 mg/kg orally once a day during 20 days
[9] = Elderly rats, 1.8 mg/kg orally once a day during 20 days
[10] = Elderly rats, 3.6 mg/kg orally once a day during 20 days
[11] = Elderly rats, 7.2 mg/kg orally once a day during 20 days
[12] = Young rats, 1.8 mg/kg orally once a day during 20 days
[13] = Young rats, 3.6 mg/kg orally once a day during 20 days
[14] = Young rats, 7.2 mg/kg orally once a day during 20 days

SMILES: N[C@@H](COP(=O)(O)O)C(=O)O [PR 156, L-Phosphoserine salt with L-Arginine 1:2]
- LEARNERS (%) (Wistar rats [1]; [3]): 100.0%
- CARs (Wistar rats [1]; [3]): 23.4 + 1.9**
- LEARNERS (%) (Wistar rats [1]; [4]): 100.0%
- CARs (Wistar rats [1]; [4]): 24.0 + 1.8**
- effect on number of conditioned responses and percentage of learners (in words) (Wistar rats [1]): proved also to be effective

SMILES: N[C@@H](COP(=O)(O)O)C(=O)O [PR 157, L-Phosphoserine salt with L-Arginine and L-Lysine]
- LATENCY (seconds) (Wistar rats [2]; [5]): (12) 46.0* seconds
- LATENCY (seconds) (Wistar rats [2]; [6]): (12) 79.4* seconds
- LATENCY (seconds) (Wistar rats [2]; [7]): (12) 82.0* seconds
- LATENCY (seconds) (Wistar rats [2]; Young rats, 5 mg/kg orally once a day during 20 days): (12) 112.3* seconds
- LATENCY (seconds) (Wistar rats [2]; Young rats, 10 mg/kg orally once a day during 20 days): (12) 161.5* seconds
- LATENCY (seconds) (Wistar rats [2]; [8]): (12) 265.1* seconds
- effect on acquirement of avoidance responses (in words) (Wistar rats [2]): caused a dose-related improvement in the acquirement of avoidance responses both in young and elderly animals
- DURATION OF STILLNESS (elderly rats; 5 mg/kg orally once a day during 20 days): 280.2 + 20.3*
- DURATION OF STILLNESS (elderly rats; 10 mg/kg orally once a day during 20 days): 263.1 + 33.4*
- DURATION OF STILLNESS (elderly rats; 20 mg/kg orally once a day during 20 days): 236.7 + 28.9*
- effect on stillness (in words) (elderly rats): showed a dose-related reduction in the stillness of the elderly rats
- LEARNERS (%) (Wistar rats [1]; [5]): 25.0%
- CARs (Wistar rats [1]; [5]): 7.9 + 0.3*
- LEARNERS (%) (Wistar rats [1]; [6]): 50.0** %
- CARs (Wistar rats [1]; [6]): 11.5 + 0.3*
- LEARNERS (%) (Wistar rats [1]; [7]): 50.0** %
- CARs (Wistar rats [1]; [7]): 18.6 + 0.4*
- LEARNERS (%) (Wistar rats [1]; [3]): 50.0%
- CARs (Wistar rats [1]; [3]): 19.4 + 0.4*
- LEARNERS (%) (Wistar rats [1]; [4]): 75.0** %
- CARs (Wistar rats [1]; [4]): 22.2 + 1.4*
- LEARNERS (%) (Wistar rats [1]; [8]): 100.0** %
- CARs (Wistar rats [1]; [8]): 24.4 + 1.4*
- effect on number of conditioned responses and percentage of learners (in words) (Wistar rats [1]): caused an increase in the number of conditioned responses as well as in the percentage of learners, both in young and elderly animals

SMILES: N[C@@H](COP(=O)(O)O)C(=O)O [Phosphoserine]
- LATENCY (seconds) (Wistar rats [2]; [9]): (12) 34.8 seconds
- LATENCY (seconds) (Wistar rats [2]; [10]): (12) 50.7* seconds
- LATENCY (seconds) (Wistar rats [2]; [11]): (12) 65.0* seconds
- LATENCY (seconds) (Wistar rats [2]; [12]): (12) 97.5* seconds
- LATENCY (seconds) (Wistar rats [2]; [13]): (12) 110.2* seconds
- LATENCY (seconds) (Wistar rats [2]; [14]): (12) 186.0* seconds
- effect on acquirement of avoidance responses (in words) (Wistar rats [2]): proved to be effective only on the elderly animals
- DURATION OF STILLNESS (elderly rats; 1.8 mg/kg orally once a day during 20 days): 301.0 + 31.4*
- DURATION OF STILLNESS (elderly rats; 3.6 mg/kg orally once a day during 20 days): 291.7 + 32.7*
- DURATION OF STILLNESS (elderly rats; 7.2 mg/kg orally once a day during 20 days): 265.8 + 24.7*
- effect on stillness (in words) (elderly rats): showed a dose-related reduction in the stillness of the elderly rats
- LEARNERS (%) (Wistar rats [1]; [9]): 25.0%
- CARs (Wistar rats [1]; [9]): 5.9 + 0.4*
- LEARNERS (%) (Wistar rats [1]; [10]): 37.5* %
- CARs (Wistar rats [1]; [10]): 6.2 + 0.5*
- LEARNERS (%) (Wistar rats [1]; [11]): 37.5** %
- CARs (Wistar rats [1]; [11]): 9.2 + 0.6*
- LEARNERS (%) (Wistar rats [1]; [12]): 50.0%
- CARs (Wistar rats [1]; [12]): 16.1 + 0.5
- LEARNERS (%) (Wistar rats [1]; [13]): 50.0%
- CARs (Wistar rats [1]; [13]): 17.6 + 0.5
- LEARNERS (%) (Wistar rats [1]; [14]): 75.0%
- CARs (Wistar rats [1]; [14]): 17.2 + 0.6
- effect on number of conditioned responses and percentage of learners (in words) (Wistar rats [1]): caused similar effects on the elderly animals only
